Measurements reported in paper PMC2074590 (British Journal of Cancer, 1996).
Where two headings read alike, the source gives them in different places.

Experiments:
breast cancer cells = test system: breast cancer cells; parameters: method as in Wakeling and Bowler, 1987, 1988; conditions: ref Wakeling and Bowler, 1987, 1988; cited from earlier work
[1] = Serum concentrations of ICI 182780 by radioimmunoassay (pharmacokinetics of monthly i.m. depot); assay type: in vivo, human; conditions: for Cmax: human, serum;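 as to AUC on entry: AUC over the first monthly dosing interval after the first injection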
Protocol: Bridsh Journal of Cancer (1996) 74, 300-308 ? […] The agent was administered as a monthly depot intramuscular injection. […] The study was approved by the ethics committees of each clinical centre. Patients were eligible for the study if they were post- menopausal and age less than 81 years, with histologically verified breast cancer. […] Patients were excluded if they had serious intercurrent disease, a WHO performance status of greater than 2, and a life expectancy of less than 3 months or had received previous cytotoxic chemotherapy for advanced breast cancer. […] Patients 5-19 received 250 mg month-1 i.m. from the outset. […] Tumour response to therapy was evaluated according to UICC criteria (Hayward et al., 1977). To qualify for the 'no change' category, tumour growth had to stabilise for more than 6 months (Howell et al., 1988; Robertson et al., 1989). Body weight was recorded at each monthly review in the majority of patients. […] The procedure was applied after solid base clean up of a diethyl ether/hexane extract of serum. The study limit of quantification was 0.68 ng ml-'. […] Gonadotrophins follicle-stimulating hormone and lutenising hormone (FSH and LH) and SHBG were measured by RIA in the Regional Radioimmunoassay Laboratory of the University Hospital of South Manchester. Prolactin was measured by immunoradiometric assay using reagents supplied by Netria. Total cholesterol levels were determined enzymatically using a commercially available reagent (Diamed, Switzerland). Triglyceride levels were determined by the glyceryl phosphate oxidase-peroxidase-antiperox- idase method using a commercially available kit (Boehringer Mannheim, Germany). High-density lipoprotein (HDL) cholesterol levels were measured after pretreatment of the serum samples with buffered magnesium phosphotungstate, which selectively precipitates low-density lipoprotein (LDL) cholesterol, very low-density lipoprotein (VLDL) cholesterol and chylomicrons, leaving HDL cholesterol in the super- natant. Serum levels of LDL cholesterol were calculated using the Friedewald equation (Friedewald et al., 1972). Endometrial assessment Endometrial thickness was measured in transverse section by transabdominal ultrasound using a Siemens Sonoline SL2 with a 3.5 MHz sector probe. Baseline and repeat scans at 3-6 monthly intervals were performed in five patients. […] Pharmacokinectic data were analysed using para- metric statistics. Data relating to body weight, serum gonadotrophin, SHBG and lipid levels were analysed using non-parametric statistics. The null hypothesis was rejected at a probability level of P<0.05. […] However, samples were not available between day 2 and day 8.

[2] = 250 mg monthly i.m., first month
[3] = 250 mg monthly i.m., sixth month
[4] = patient 5 (partial response), 250 mg
[5] = patient 8 (partial response), 250 mg
[6] = patient 10 (partial response), 250 mg
[7] = patient 13 (progressive disease), 250 mg
[8] = patient 14 (partial response), 250 mg
[9] = patient 16 (partial response), 250 mg

AUC, first month [1, 2]: 140.5 ng·days/mL | Mean end-of-month concentration, first month [1, 2]: 3.1 ng/mL | AUC, sixth month [1, 3]: 206.8 ng·days/mL | Mean end-of-month concentration, sixth month [1, 3]: 5.6 ng/mL | Difference in Cmax and AUC, partial response vs no change patients ([1]; after 6 months of treatment): no significant difference | Increase in AUC ([1]; after 6 months vs month 1): 50% | Increase in mean end of month drug levels ([1]; after 6 months vs month 1): 80% | Cmax ([1]; female, im, 250 mg, 250 mg monthly i.m., first month, read-out: Cmax, first month (mean)): 10.5 ng/mL | Cmax ([1]; female, im, 250 mg, 250 mg monthly i.m., sixth month, read-out: Cmax, sixth month (mean)): 12.6 ng/mL | Cmax ([1]; female, intramuscular, no change patients, read-out: Median Cmax at month 6): 12.8 ng/mL | Cmax ([1]; female, intramuscular, no change patients, read-out: Median Cmax on entry): 9.3 ng/mL | Cmax ([1]; female, intramuscular, partial response patients, read-out: Median Cmax at month 6): 11 ng/mL | Cmax ([1]; female, intramuscular, partial response patients, read-out: Median Cmax on entry): 7.7 ng/mL | Cmax ([1]; female, intramuscular, progressive disease patients, read-out: Median Cmax on entry): 5.6 ng/mL | Release of drug from slow release formulation ([1]; following both the 100 mg and 250 mg doses): continuous release of drug | Cmax ([1]; intramuscular, 100 mg, patient 1 (progressive disease), 100 mg dose at entry, read-out: Cmax on entry): 4.4 ng/mL | Cmax ([1]; intramuscular, 100 mg, patient 2 (no change), 100 mg dose at entry, read-out: Cmax on entry): 1.8 ng/mL | Cmax ([1]; intramuscular, 100 mg, patient 3 (partial response), 100 mg dose at entry, read-out: Cmax on entry): 2.9 ng/mL | Cmax ([1]; intramuscular, 100 mg, patient 4 (progressive disease), 100 mg dose at entry, read-out: Cmax on entry): 1.6 ng/mL | Cmax ([1]; intramuscular, 250 mg, patient 2 (no change), 250 mg, read-out: Cmax at month 6): 7.5 ng/mL | Cmax ([1]; intramuscular, 250 mg, patient 3 (partial response), 250 mg, read-out: Cmax at month 6): 9.9 ng/mL | Cmax ([1]; intramuscular, 250 mg, patient 5 (partial response), 250 mg, read-out: Cmax at month 6): 17.6 ng/mL | Cmax ([1]; intramuscular, 250 mg, patient 5 (partial response), 250 mg, read-out: Cmax on entry): 17.4 ng/mL | Cmax ([1]; intramuscular, 250 mg, patient 6 (partial response), 250 mg, read-out: Cmax on entry): 7.7 ng/mL | Cmax ([1]; intramuscular, 250 mg, patient 7 (progressive disease), 250 mg, read-out: Cmax on entry): 5.5 ng/mL | Cmax ([1]; intramuscular, 250 mg, patient 8 (partial response), 250 mg, read-out: Cmax at month 6): 10 ng/mL | Cmax ([1]; intramuscular, 250 mg, patient 8 (partial response), 250 mg, read-out: Cmax on entry): 5.9 ng/mL | Cmax ([1]; intramuscular, 250 mg, patient 9 (progressive disease), 250 mg, read-out: Cmax on entry): 9.7 ng/mL | Cmax ([1]; intramuscular, 250 mg, patient 10 (partial response), 250 mg, read-out: Cmax at month 6): 9.1 ng/mL | Cmax ([1]; intramuscular, 250 mg, patient 10 (partial response), 250 mg, read-out: Cmax on entry): 14.8 ng/mL | Cmax ([1]; intramuscular, 250 mg, patient 11 (progressive disease), 250 mg, read-out: Cmax on entry): 29.9 ng/mL | Cmax ([1]; intramuscular, 250 mg, patient 12 (no change), 250 mg, read-out: Cmax at month 6): 12.2 ng/mL | Cmax ([1]; intramuscular, 250 mg, patient 12 (no change), 250 mg, read-out: Cmax on entry): 7.2 ng/mL | Cmax ([1]; intramuscular, 250 mg, patient 13 (progressive disease), 250 mg, read-out: Cmax at month 6): 15.8 ng/mL | Cmax ([1]; intramuscular, 250 mg, patient 13 (progressive disease), 250 mg, read-out: Cmax on entry): 5.6 ng/mL | Cmax ([1]; intramuscular, 250 mg, patient 14 (partial response), 250 mg, read-out: Cmax at month 6): 13.5 ng/mL | Cmax ([1]; intramuscular, 250 mg, patient 14 (partial response), 250 mg, read-out: Cmax on entry): 9.1 ng/mL | Cmax ([1]; intramuscular, 250 mg, patient 15 (no change), 250 mg, read-out: Cmax at month 6): 15.8 ng/mL | Cmax ([1]; intramuscular, 250 mg, patient 15 (no change), 250 mg, read-out: Cmax on entry): 9 ng/mL | Cmax ([1]; intramuscular, 250 mg, patient 16 (partial response), 250 mg, read-out: Cmax at month 6): 12 ng/mL | Cmax ([1]; intramuscular, 250 mg, patient 16 (partial response), 250 mg, read-out: Cmax on entry): 4.4 ng/mL | Cmax ([1]; intramuscular, 250 mg, patient 17 (no change), 250 mg, read-out: Cmax at month 6): 14.9 ng/mL | Cmax ([1]; intramuscular, 250 mg, patient 17 (no change), 250 mg, read-out: Cmax on entry): 9.5 ng/mL | Cmax ([1]; intramuscular, 250 mg, patient 18 (no change), 250 mg, read-out: Cmax at month 6): 10.2 ng/mL | Cmax ([1]; intramuscular, 250 mg, patient 18 (no change), 250 mg, read-out: Cmax on entry): 10.3 ng/mL | Cmax ([1]; intramuscular, 250 mg, patient 19 (no change), 250 mg, read-out: Cmax at month 6): 17.2 ng/mL | Cmax ([1]; intramuscular, 250 mg, patient 19 (no change), 250 mg, read-out: Cmax on entry): 11 ng/mL | Difference in median Cmax and AUC between responders and non-responders ([1]; in vivo): no significant difference | Increase in AUC on multiple dosing ([1]; month 6 vs month 1, 250 mg): 1.5 fold | Increase in Cmax on multiple dosing ([1]; month 6 vs month 1, 250 mg): 1.2 fold | Median AUC at month 6 ([1]; no change patients): 190.9 ng·days/mL | Median AUC on entry ([1]; no change patients): 131.6 ng·days/mL | Median AUC at month 6 ([1]; partial response patients): 191.0 ng·days/mL | Median AUC on entry ([1]; partial response patients): 118.7 ng·days/mL | AUC at month 6 ([1]; patient 2 (no change), 250 mg): 135.8 ng·days/mL | AUC at month 6 ([1]; patient 3 (partial response), 250 mg): 139.5 ng·days/mL | AUC at month 6 [1, 4]: 203.0 ng·days/mL | AUC on entry [1, 4]: 188.4 ng·days/mL | AUC on entry ([1]; patient 6 (partial response), 250 mg): 118.3 ng·days/mL | AUC on entry ([1]; patient 7 (progressive disease), 250 mg): 105.7 ng·days/mL | AUC at month 6 [1, 5]: 175.2 ng·days/mL | AUC on entry [1, 5]: 118.7 ng·days/mL | AUC on entry ([1]; patient 9 (progressive disease), 250 mg): 138.2 ng·days/mL | AUC at month 6 [1, 6]: 191.7 ng·days/mL | AUC on entry [1, 6]: 206.6 ng·days/mL | AUC on entry ([1]; patient 11 (progressive disease), 250 mg): 289.3 ng·days/mL | AUC at month 6 ([1]; patient 12 (no change), 250 mg): 179.3 ng·days/mL | AUC on entry ([1]; patient 12 (no change), 250 mg): 143.6 ng·days/mL | AUC at month 6 [1, 7]: 243.7 ng·days/mL | AUC on entry [1, 7]: 36.7 ng·days/mL | AUC at month 6 [1, 8]: 266.0 ng·days/mL | AUC on entry [1, 8]: 134.6 ng·days/mL | AUC at month 6 ([1]; patient 15 (no change), 250 mg): 201.7 ng·days/mL | AUC on entry ([1]; patient 15 (no change), 250 mg): 107.8 ng·days/mL | AUC at month 6 [1, 9]: 190.8 ng·days/mL | AUC on entry [1, 9]: 72.8 ng·days/mL | AUC at month 6 ([1]; patient 17 (no change), 250 mg): 297.6 ng·days/mL | AUC on entry ([1]; patient 17 (no change), 250 mg): 125.5 ng·days/mL | AUC at month 6 ([1]; patient 18 (no change), 250 mg): 156.1 ng·days/mL | AUC on entry ([1]; patient 18 (no change), 250 mg): 183.2 ng·days/mL | AUC at month 6 ([1]; patient 19 (no change), 250 mg): 308.0 ng·days/mL | AUC on entry ([1]; patient 19 (no change), 250 mg): 137.8 ng·days/mL | Median AUC on entry ([1]; progressive disease patients): 79.4 ng·days/mL
Compound: C[C@]12CC[C@@H]3c4ccc(O)cc4C[C@@H](CCCCCCCCC[S+]([O-])CCCC(F)(F)C(F)(F)F)[C@H]3[C@@H]1CC[C@@H]2O (stereo partly shown) [ICI 182780, 7a-[9(4,4,5,5,pentafluoropentyl-sulphinyl)nonyl]oestra-1 ,3,5,(10)-triene-3,17,B-diol]
Potency as inhibitor of cell growth in vitro relative to tamoxifen (breast cancer cells): up to two orders of magnitude more potent than tamoxifen | Serum level at day 28 relative to threshold ([1]; monthly depot i.m., day 28): above the projected therapeutic threshold
